Experiments:
[1] = cited from earlier work
[2] = 600 mg three times a day for 6 days; cited from earlier work
[3] = Symptomatic treatment of nonproductive cough in 3 volunteer patients in the final phase of a viral infection; type: in vivo, human
Experimental: The efficacy of ibuprofen in the symptomatic treatment of nonproductive cough was determined in 3 volunteer patients in the final phase of a viral infection. For this purpose, the patients received oral administration of 400 or 800 mg of ibuprofen (the daily dose was between 400 and 1200 mg). No other medicaments were taken by the patients during the viral infection.
It was observed after administration of ibuprofen that the number of attacks of coughing was reduced by more than 50% relative to the number of attacks of coughing before administration of ibuprofen.
The effects of ibuprofen declined after 6 to 8 hours and the cough reappeared in the former severity.

[4] = oral 400 or 800 mg ibuprofen, patients' report

Q: For CC(=O)Nc1ccc(O)cc1 [paracetamol], which “alleviation of the symptoms of cough” value ([1]; 5 days, paracetamol 10 mg/kg 3x a day vs ibuprofen or nimesulide) is on record?
A: Its value is “greater”.

Q: For CC(C)Cc1ccc(C(C)C(=O)O)cc1 (stereo not drawn) [ibuprofen], which symptoms of cough ([1]; 10 mg/kg, 30 children, uncontrolled study) is on record?
A: Its symptoms of cough is “reduction in the symptoms of cough”.

Q: What about the “number of coughing episodes compared with placebo” value [2] of the same molecule?
A: Its value is “reduction in the number of coughing episodes”.

Q: What about the “number of attacks of coughing reduced relative to the number before administration” value ([3]; oral 400 or 800 mg ibuprofen (daily dose 400-1200 mg), 3 patients) of the same molecule?
A: Its value is “more than 50%”.

Q: What about the “intensity of the urge to cough” value [3, 4] of the same molecule?
A: Its value is “reduced”.

Q: What about the “severity of the attacks of coughing” value [3, 4] of the same molecule?
A: Its value is “reduced”.

Q: What about the “patients' rest at night” value ([3]; oral 400 or 800 mg ibuprofen, without additional cough suppressant) of the same molecule?
A: The value was “possible to improve the patients' rest at night”.

Q: And the “symptoms of cough after renewed administrations” value ([3]; subsequent renewed administrations of ibuprofen)?
A: Its value is “again led to the described improvement”.

Q: Which fever-reducing effect ([1]; 5 days, nimesulide 2.5 mg/kg 2x a day vs paracetamol or ibuprofen 10 mg/kg 3x a day) does the source give for CS(=O)(=O)Nc1ccc([N+](=O)[O-])cc1Oc1ccccc1 [nimesulide] here?
A: Its fever-reducing effect is “better and faster than that of paracetamol or ibuprofen”.
